The test system of experiment [1] is B lymphocytes from patients suffering from chronic lymphoid leukemia (CLL). Conditions: for cell effect CLL 40 (survival): 4 hours of culture, cells not labeled with annexin or propidium iodide; for effect of the peptide on cell mortality, in words (relative to A1 WT IRS): 40 μM, 4 hours, FIG. 9. As for the experimental part: Peripheral blood B lymphocytes taken from patients suffering from CLL and then purified on a Ficoll cushion and placed in culture are incubated in the presence of […] of the peptides described for FIG. 2. The percentage cell survival after 4 hours (gray column) or 24 hours (white column) of culture corresponds to the percentage of cells labeled neither with annexin nor with propidium iodide, evaluated by flow cytometry.
The CLL B lymphocytes were obtained from peripheral blood of 18 different patients suffering from chronic lymphoid leukemia. […] The samples were taken in the Brest hospital center, in the hematology department. The blood samples were taken after informing the patients and obtaining their informed consent.
The lymphocytes, mononuclear cells, were isolated from the heparinized peripheral blood samples by Ficoll-Hypaque (LSM 1077 lymphocyte, euro-bio) centrifugation. The red blood cells were lyzed by incubation for 10 min in VersaLyse Lysing Solution (Beckman Coulter). The mononuclear cells are obtained after 2 washes in culture medium (RPMI1640, Gibco BRL).
(§1) The cells were cultured in a culture medium composed either of RPMI 1640 (B lymphocytes) or of DMEM (COS7, HCT116, HGT1, 293, HeLa) containing 10% of FCS (fetal calf serum, 1% of penicillin-streptomycin and 1% of glutamine, Gibco BRL). The cells are distributed in a 24-well plate and cultured at 37° C. in a humid atmosphere under 5% CO2.
(§2) 400 μl of cell suspension (1×10^6 cells/ml) per well were treated for 4 h or 24 h with various concentrations of peptides. The test for activity of the peptides in the presence of emetine (FIG. 6) was carried out by preincubating the cells with 100 μM of emetine for one hour before the addition of peptide.
(§3) After the cells have been washed with PBS, they were analyzed using the Annexin V-FITC IP system according to the supplier's recommendations (Beckman Coulter).
The cells taken from patients suffering from chronic lymphoid leukemia were purified on a Ficoll cushion. […] The cells were placed in culture in RPMI medium in the presence of 10% FCS (fetal calf serum). The peptides were added directly to the culture medium. These peptides comprise the IRS sequence (the amino acid sequence of which is RYIRS) which is known to allow the penetration of peptides into B lymphocytes in culture (Dong et al., 2005). […] The cells which survive the treatment are those which are labeled neither with annexin nor with propidium iodide.

Experiment [2] deals with control T lymphocytes (patients suffering from hemochromatosis). Description: Cell survival of control T lymphocytes, annexin/propidium iodide flow cytometry. It counts as cell-based, human. The conditions noted are these: 40 μM peptide, 4 hours of culture, cells not labeled with annexin or propidium iodide. As for the experimental part:
FIG. 7: Activity of the A1WT peptide on cells of lymphocytic, lymphoid, gastric, colonic or renal origin The cells are prepared and placed in culture (see Materials and Methods) and then incubated for 4 H with the A1WT or A1 YALA peptide. The percentage cell survival corresponds to the percentage of cells labeled neither with annexin nor with propidium iodide, evaluated by flow cytometry. The names of the pathological conditions from which the patients from whom the samples are taken are suffering are indicated under the figure. The control T (L.T.) and B (L.B.) lymphocytes are taken from patients suffering from a disease not related to a lymphocytic pathological condition (hemochromatosis).
The control B lymphocytes and T lymphocytes originate from peripheral blood samples from patients suffering from hemochromatosis, provided by the CTS transfusion center in Brest. The B and T lymphocytes were isolated using the Rosett-Sep kit (Stemcell Technologies) according to the supplier's recommendations.
as §1, §2, §3

For experiment [3], the system named is Jok cells (cell line derived from B lymphocytes). Description: Cell survival of Jok cells, annexin/propidium iodide flow cytometry. The class given is cell-based, human. The conditions noted are these: for cell effect Jok 20 (survival): 20 μM peptide; for cell effect Jok 20 (survival) / cell effect Jok 40 (survival): 4 hours of culture, cells not labeled with annexin or propidium iodide; for effect of the peptide on cell mortality, in words (relative to A1 WT IRS): 4 hours, FIG. 9; for cell effect Jok 40 (survival): 40 μM peptide. As for the experimental part:
The cells are treated as indicated for FIG. 7, with the CLL cells, control T lymphocytes and Jok lymphocytes, which are incubated with the A1 WT IRS peptide and derivatives thereof described in table 1. The Jok cells were incubated either with 20 μM (JOK 20) or with 40 μM (JOK 40) of each of the peptides. In the interests of simplifying the legend, the A1 WT IRS peptide is referred to as “WT”. Likewise, the derivatives thereof are referred to by the name of the mutations (A1 K3I IRS is referred to as “K3I”, for example).
as §1, §2, §3
The peptides were tested on B lymphocytes from patients suffering from chronic lymphoid leukemia, control T lymphocytes, or Jok cells (cell line derived from B lymphocytes). The experiment was repeated three times for each type of cell tested.
(Flow cytometry measures light scatter and fluorescence of single cells or particles in a stream.)

Experiment [4] relates to control T lymphocytes (patients suffering from hemochromatosis). The experiment can be described thus: Cell survival of control T lymphocytes, annexin/propidium iodide flow cytometry. The class given is cell-based, human. Conditions: 40 μM, 4 hours; FIG. 9.
The mark [5] stands for this setting: concentration not given (20 or 40 μM).

Turning to `CC[C@H]1CN2CCc3cc(OC)c(OC)cc3[C@@H]2C[C@@H]1C[C@H]1NCCc2cc(OC)c(OC)cc21` [emetine, reference compound], the “cell survival with emetine alone” value in experiment [1] (100 μM emetine, after 4 H of incubation (from 97%), FIG. 6) came to 82%.
Consider GGKYGRDFLLRFRYIRS [A1 R1, 2G IRS], for which the “cell effect CLL 40 (survival)” value in experiment [1] (40 μM peptide) was “− (−: survival >50%)”. Further, the “effect of the peptide on cell mortality, in words (relative to A1 WT IRS)” value (shortened to “effect of the peptide … (relative to A1 WT IRS)”) in experiment [1] is reported as “abolishes the effect”; in experiment [3] (20 μM), “abolishes the effect”; in experiment [3] (40 μM), “only partially decreased”; in experiment [4] it was “abolishes the effect”. The “cell effect LT 40 (survival)” value in experiment [2] is listed as “− (−: survival >50%)”. Further, the “cell effect Jok 20 (survival)” value in experiment [3] is “− (−: survival >50%)”. Moreover, in experiment [3], the “cell effect Jok 40 (survival)” value is “+/− (+/−: survival between 25 and 50%)”.
For the compound KKKYGRDFLLRFRYIRS [A1 R1, 2K IRS], the “cell effect CLL 40 (survival)” value in experiment [1] (40 μM peptide) is “+ (+: survival <25%)”. Moreover, the “effect of the peptide … (relative to A1 WT IRS)” value was “decreases the effect” in experiment [1], “decreases the effect” in experiment [3] (20 μM), “the same effect as the A1 WT IRS peptide” in experiment [3] (40 μM) and “decreases the effect” in experiment [4]. In experiment [2], the “cell effect LT 40 (survival)” value was “+/− (+/−: survival between 25 and 50%)”. In addition, the “cell effect Jok 20 (survival)” value in experiment [3] was “+/− (+/−: survival between 25 and 50%)”. In experiment [3], the “cell effect Jok 40 (survival)” value is given as “+ (+: survival <25%)”.
Consider “KYGRDFLLRFRYIRS [A1 del2 IRS, deletion of the first two amino acids]”, for which the “cell effect CLL 40 (survival)” value in experiment [1] (40 μM peptide) is on record as “− (−: survival >50%)”. Besides, the “effect of the peptide … (relative to A1 WT IRS)” value in experiment [1] was “loss of effect”; in experiment [3] (20 μM), “loss of effect”; in experiment [3] (40 μM), “considerable mortality”; in experiment [4] it was “loss of effect”. Further, the “cell effect LT 40 (survival)” value in experiment [2] is given as “− (−: survival >50%)”. Also, the “cell effect Jok 20 (survival)” value in experiment [3] is “+/− (+/−: survival between 25 and 50%)”. Also, in experiment [3], the “cell effect Jok 40 (survival)” value is recorded as “+ (+: survival <25%)”.
As for “RIIYDRHFLLNMRYIRS [BPSg WT IRS, reference compound]”, the “effect on percentage cell survival” value in experiment [1] (40 μM peptide, 4 H and 24 H, FIG. 3) is “the percentage survival did not decrease”.
With “RIKYDRKFLLDRRYIRS [BP2 I3K IRS, reference compound]”, in experiment [1] (40 μM peptide), the “cell effect CLL 40 (survival)” value is given as “− (−: survival >50%)”. Also, the “action of the peptide on cell survival, in words, cell type not given” value in experiment [1] (Example 6 (CLL cells, control T lymphocytes, Jok cells)) is given as “does not confer a better efficacy”. For the same compound, the “cell effect LT 40 (survival)” value in experiment [2] is listed as “− (−: survival >50%)”. Moreover, in experiment [3], the “cell effect Jok 20 (survival)” value was “− (−: survival >50%)” and the “cell effect Jok 40 (survival)” value was “− (−: survival >50%)”.
In the case of RRIYGRDFLLRFRYIRS [A1 K3I IRS], the “cell effect CLL 40 (survival)” value in experiment [1] (40 μM peptide) is on record as “− (−: survival >50%)”. Also, in experiment [1], the “effect of the peptide … (relative to A1 WT IRS)” value is “loss of effect”. Besides, in experiment [3], the “cell effect Jok 20 (survival)” value was “+/− (+/−: survival between 25 and 50%)”; the “cell effect Jok 40 (survival)” value is given as “+ (+: survival <25%)”. Further, in experiment [3] (20 μM), the “effect of the peptide … (relative to A1 WT IRS)” value is reported as “partially”.
Consider RRKYARDFLLRFRYIRS [A1 G5A-IRS], for which the “cell effect CLL 40 (survival)” value in experiment [1] (40 μM peptide) is listed as “+ (+: survival <25%)”. The “effect of the peptide … (relative to A1 WT IRS)” value in experiment [1], in experiment [3] (setting [5]) and in experiment [4] was “slightly increases the effect” in each case. Besides, the “cell effect LT 40 (survival)” value in experiment [2] is on record as “+ (+: survival <25%)”. Besides, the “cell effect Jok 20 (survival)” value in experiment [3] is “+ (+: survival <25%)”. Moreover, in experiment [3], the “cell effect Jok 40 (survival)” value was “+ (+: survival <25%)”.
With RRKYGHDFLLRFRYIRS [A1 R6H IRS], the “cell effect CLL 40 (survival)” value in experiment [1] (40 μM peptide) is “+/− (+/−: survival between 25 and 50%)”. Also, the “effect of the peptide … (relative to A1 WT IRS)” value in experiment [1] is recorded as “abolishes the effect”; in experiment [3] (setting [5]), “the effect is potentiated”; in experiment [4] it was “abolishes the effect”. Moreover, the “cell effect LT 40 (survival)” value in experiment [2] was “+/− (+/−: survival between 25 and 50%)”. Moreover, in experiment [3], the “cell effect Jok 20 (survival)” value was “+ (+: survival <25%)”. In addition, in experiment [3], the “cell effect Jok 40 (survival)” value is “+ (+: survival <25%)”.
Consider RRKYGKDFLLRFRYIRS [A1 R6K IRS], for which the “cell effect CLL 40 (survival)” value in experiment [1] (40 μM peptide) is on record as “+ (+: survival <25%)”. Besides, the “effect of the peptide … (relative to A1 WT IRS)” value in experiment [1], in experiment [3] (setting [5]) and in experiment [4] was “partially decreases the action” in each case. Also, in experiment [2], the “cell effect LT 40 (survival)” value was “+/− (+/−: survival between 25 and 50%)”. In addition, in experiment [3], the “cell effect Jok 20 (survival)” value is “+/− (+/−: survival between 25 and 50%)”. Moreover, the “cell effect Jok 40 (survival)” value in experiment [3] was “+ (+: survival <25%)”.
For RRKYGRAFLLFRFYIRS [A1 D7A IRS], the “cell effect CLL 40 (survival)” value in experiment [1] (40 μM peptide) was “+ (+: survival <25%)”. For the same compound, the “effect of the peptide … (relative to A1 WT IRS)” value in experiment [1] is given as “does not modify the action”. Further, in experiment [2], the “cell effect LT 40 (survival)” value is reported as “+ (+: survival <25%)”. Moreover, in experiment [3], the “cell effect Jok 20 (survival)” value was “+ (+: survival <25%)” and the “cell effect Jok 40 (survival)” value is “+ (+: survival <25%)”. The “effect of the peptide … (relative to A1 WT IRS)” value in experiment [4] is recorded as “does not modify the action”.
Regarding RRKYGRDFLLRKRYIRS [A1 F12K IRS], in experiment [1] (40 μM peptide), the “cell effect CLL 40 (survival)” value is on record as “− (−: survival >50%)”. Also, the “effect of the peptide … (relative to A1 WT IRS)” value in experiment [1], in experiment [3] (setting [5]) and in experiment [4] was “completely abolishes the action” in each case. Moreover, the “cell effect LT 40 (survival)” value in experiment [2] is recorded as “− (−: survival >50%)”. Also, the “cell effect Jok 20 (survival)” value in experiment [3] is recorded as “− (−: survival >50%)”. In addition, in experiment [3], the “cell effect Jok 40 (survival)” value was “− (−: survival >50%)”.
Take RRKYGRDFLLRWRYIRS [A1 F12W IRS]: the “cell effect CLL 40 (survival)” value in experiment [1] (40 μM peptide) is reported as “+ (+: survival <25%)”. The “effect of the peptide … (relative to A1 WT IRS)” value in experiment [1], in experiment [3] (setting [5]) and in experiment [4] was “does not modify the action” each time. Also, the “cell effect LT 40 (survival)” value in experiment [2] is “+ (+: survival <25%)”. Also, the “cell effect Jok 20 (survival)” value in experiment [3] is given as “+ (+: survival <25%)”. Further, the “cell effect Jok 40 (survival)” value in experiment [3] was “+/− (+/−: survival between 25 and 50%)”.

(Values after patent US9745357B2, “Peptides used for treating cancers and, in particular, chronic lymphoid leukaemia” (Centre National de la Recherche Scientifique, priority 2009, dated 2017).)
